The text below walks through data of paper PMC11763059, “GENI as an AMPK Activator Binds α and γ Subunits and Improves the Memory Dysfunction of Alzheimer’s Disease Mouse Models via Autophagy and Neuroprotection” (Antioxidants, 2025).

For one assay, the system named is D-gal-induced AD mice. Briefly: Immunohistochemistry of brain in D-gal-induced AD mice. Conditions: compared with the D-gal group. The format is in vivo. How it is done: Each group comprised 10 mice. […] Dosing lasted for 10 weeks. […] The mice were sacrificed after 10 weeks of administration.
(§1) Firstly, the three mice of each group were subjected to heart perfusion at the end of the animal experiment, and the whole brain was removed and placed in 15 mL of 4% paraformaldehyde and stored at 4 °C for 24 h. Secondly, we changed 4% paraformaldehyde into 15% sucrose solution and stored the solution at 4 °C for 24 h. We then changed the solution to 30% sucrose solution to dehydrate for 2 days. Thirdly, the mouse brain tissue was embedded in a cryo-embedding medium, and about 80 slices with a thickness of 20 μm were cut in the hippocampus using a cryostat (Thermal Fisher, Shanghai, China). The sections of mice in each group were immunohistochemically stained with primary antibodies, such as neuronal nuclear anti gen (NeuN), ionized calcium-binding adapter molecule 1 (Iba-1), inducible nitric oxide synthase (iNOS, pro-inflammatory factors), synaptophysin (Syp), and glial fibrillary acidic protein (GFAP), and secondary antibody. The product number and usage ratios of primary and secondary antibodies are detailed in Supplementary Table S4. Finally, the sections were observed under an upright two-photon confocal microscope (Olympus BX61, Tokyo, Japan) and recorded by a camera. The pictures were digitized with ImageJ software V1.8.0.112 (National Institutes of Health, Bethesda, MD, USA).

For assay [1], the system named is AMPK/mTOR/ULK1/LC3B signaling pathway. Kind of assay: Western blot of autophagy signaling pathway proteins. It is filed as cell-based. Conditions: after giving GENI; PC12 cells and mouse hippocampus and cerebral cortex (Extended Data Figure S3a–f). How it is done:
(§2) Western blot analysis for p-AMPK α, AMPK α, p-mTOR, mTOR, p-ULK1, ULK1, and LC3-I/II was conducted according to the information described in the materials and methods section of Supplementary Information.
1.3. Western blot analysis.
For PC12 cell samples, we seeded 2 × 10^6 PC12 cells in each 60 mm dish containing 5 mL of DMEM and incubated the dish for 24 h. For the dose-dependent experiment of GENI, GENI (1, 3 and 10 μM) was added to the dishes and incubated for a period of time (2 hours for p-AMPK α, AMPK α, 48 hours for p-mTOR, mTOR and p-ULK1, ULK1; 8 hours for LC3-I/II). Cells were then collected, lysed using RAPI lysis buffer and centrifuged. The supernatants of each group were used as protein samples. […]
(§3) The supernatants of each group were used as protein samples. For animal samples, an appropriate amount of tissue, such as cerebral cortex and hippocampus (50–100 mg), of each group was weighed, and we added lysis buffer with 1:9 ratios. After grinding and centrifuging, the supernatants of each group were used as protein samples. The protein concentration was measured with a BCA assay kit (Beijing Cowin Biotech Company, Beijing, China). Sodium dodecyl sulphate polyacrylamide gel electrophoresis (SDS-PAGE) was used to separate proteins (15 μg), which were transferred to PVDF membranes. The membrane was incubated with primary and secondary antibodies (Supplementary Table S5 for details). Antigens were visualised using a high-sensitivity chemiluminescence detection kit (Beijing Cowin Biotech Company, Beijing, China). Bands were quantitatively measured using ImageJ software (National Institutes of Health, Bethesda, MD, USA).
Background: Immunoblotting shows a protein as a band on a membrane.

Another assay concerns PC12 cells. Briefly: Total SOD enzymatic activity assay in PC12 cells. The note with it: compared with the H2O2-treated group. The format is cell-based. How it is done: To determine ROS levels in PC12 cells, we seeded 5 × 10^4 PC12 cells in each well of a 24-well plate. Cells were treated with RES (10 μM) or GENI (1, 3, and 10 μM) for 24 h, followed by 0.8 mM H2O2 for 1 h. DCFH-DA (2,7-dichlorodihydrofluorescein diacetate, final concentration, 10 μM) was then added to each well and incubated for 30 min. Cells were washed with PBS to remove extracellular DCFH-DA, and intercellular ROS was detected by using a SpectraMax M3 multimode microplate reader (Molecular Devices Corporation, San Jose, CA, USA) at an excitation wavelength of 488 nm and an emission wavelength of 525 nm. Meanwhile, DCF in PC12 cells was observed using a fluorescence microscope (HCS, Thermo Fisher, Science, Waltham, MA, USA). To detect malondialdehyde (MDA) content and total SOD enzymatic activities in PC12 cells, we seeded 2 × 10^6 PC12 cells in 60 mm dishes containing 5 mL of DMEM and cultured the cells for 24 h. PC12 cells were treated with RES (10 μM) or GENI (3 or 10 μM) for 24 h and then treated with 0.8 mM H2O2 for 1 h to determine the MDA content and total superoxide dismutase (SOD) activities. Cells were lysed and centrifuged. […] MDA quantification and total SOD activities were determined using MDA and SOD enzyme activity assay kits (Nanjing Jiancheng Bioengineering Institute, Nanjing, China) following the manufacturer’s instructions.

For the next assay, the system named is natural aging AD mice. Kind of assay: Immunohistochemistry and Western blot of brain in naturally aged AD mice. It is filed as in vivo. Conditions: GENI 25 mg/kg, compared with aged group. How it is done:
Each group had 10 mice. GENI was dissolved in ultrapure water and administered by gavage, whereas Dor was dissolved in normal saline. The pH was adjusted to pH 5 with 0.1 M hydrochloric acid to the clarified solution and administered by intraperitoneal injection. The dosing experiment also lasted 10 weeks. Animal behavioral experiments and sampling at the end of the animal experiment were performed as described above.
as §1, §2
1.3. Western blot analysis. […]
as §3

The mark [2] stands for this setting: DON 3 mg/kg, GENI 12.5, 25, 50 mg/kg groups.

Consider `CC(C)CCOC(=O)C1=CO[C@@H](O[C@@H]2O[C@H](CO)[C@@H](O)[C@H](O)[C@H]2O)C2C(CO)=CCC12` (some centres unmarked) [GENI, Geniposidic 4-isoamyl ester], for which, in the assay with D-gal-induced AD mice, the “activation of astrocytes (GFAP) in the cerebral cortex” value was “decreased”, the “activation of microglia (Iba-1) in the cerebral cortex” value is “decreased” and the “expression of iNOS in the cerebral cortex” value is listed as “decreased”. Also, in the assay on D-gal-induced AD mice (setting [2]), the “Syp intensity in the cerebral cortex” value is reported as “significantly increased”; the “mature neurons (NeuN) in the cerebral cortex and hippocampus” value is listed as “significantly increased”. Moreover, in assay [1], the “LC3B at protein level” value is “increase”, the “phosphorylate-AMPK at protein level” value is “increase”, the “phosphorylate-ULK1 at protein level” value is reported as “increase” and the “phosphorylate-mTOR at protein level” value was “reduction”. For the same compound, in the assay with PC12 cells, the “total SOD activity” value is recorded as “increased”. Moreover, the “APP and Tau of hippocampus CA, DG, and cerebral cortex, Aβ and Tau phosphorylation of cerebral cortex” value with natural aging AD mice is “significantly decreased”.
